This note sets out measurements from patent US20250215091A1, “Anti-GAL3 Antibodies and Compositions” (Les Laboratoires Servier, priority 2022, published 2025).

The test system of one experiment is plasma IL-6. The experiment can be described thus: HOCI-induced murine fibrosis model: plasma IL-6 (MSD). The experiment is classed as in vivo, mice. The following applies: first experiment, day 42; vs HOCI group; FIG. 9. How it is done: (§1) In a first experiment, control mice (n=12) received a daily intradermal injection of 300 μL of sterile phosphate buffer saline (PBS) for 5 consecutive days per week, for a duration of 42 days. HOCI alone and HOCI with antibody (HOCI-antibody) treated mice (n=12 per group) received a daily intradermal injection of 300 μL of HOCI for 5 consecutive days per week, for a duration of 42 days. Antibody-treated mice also received a subcutaneous injection of 20 mg/kg antibody, starting at day minus one and every 5 days between day 5 and day 40. Each antibody was solubilized in sterile, endotoxin-free PBS before injection. In a second experiment, the same protocol was applied, except that duration of the study was 63 days and antibodies were given every 7 days starting at day minus 1 until day 62.
(§2) Mice that received daily injection of HOCI were also treated by intratracheal instillation of 0.5 mg/kg of TD139 compound (HOCI-TD139), a small molecule Gal3 inhibitor. In a first experiment, the administrations started from day 21 and the compound was given every 3 days until day 39. In a second experiment, the administrations started from day 20 and the compound was given every 3 days until day 62. TD139 was initially dissolved in 100% DMSO then diluted 50-fold in endotoxin-free PBS before administration.
(§3) In the first experiment, a mixed effect model with repeated measurements was performed on Control group, HOCI treated group, HOCI-antibody- and HOCI-TD139-treated groups. The impact of HOCI administration on plasma IL-6 and IL-5 levels was evaluated compared to the control group. The impact of antibody and TD139 treatments was compared to the HOCI group (FIG. 9). IL-6 and IL-5 were quantified by using the MSD technology from Mesoscale.

The test system of experiment [1] is genes differentially regulated between HOCI group and control group in whole blood cells. Kind of experiment: HOCI-induced murine fibrosis model: whole blood RNA sequencing. Format: in vivo, mice. Particulars: of 510 genes differentially regulated HOCI vs control; day 42, whole blood. As to the method: as §1, §2
In the first experiment, global gene expression was examined at day 42 in whole blood cells by RNA sequencing.
Whole blood was collected in RNA protect tubes (Qiagen) and were processed for RNA extraction using the RNeasy Protect Animal blood kit with the optional on-column DNAse I digestion. Total RNA samples were quantified on Nanodrop 2000 (ThermoFisher Scientific™) and analyzed on Bioanalyzer (Agilent) using RNA 6000 Nano chips to determine RNA quality (RIN). Total RNA matching the QC criteria were included in the study. Purified RNA samples were used as input for the TruSeq Strand-specific RNA-seq (poly A selection and globin depletion) according to manufacturer's protocol (Illumina). […]
Raw reads were processed using the in-house RNAExp Expression pipeline 2.1 and the quality was assessed using FastQC tools. Then, reads were trimmed for adaptors using Cutadapt and trimmed reads were aligned to mouse mm39 reference genome using the STAR aligner. Aligned data were evaluated for quality using Samtools and Picard tools. Then, aligned reads per gene were quantified using FeatureCount. […] Read count were normalized by the variance stabilizing transformation vst function from DESeq2 R package.
55,416 genes were detected in the data. […] Genes differentially expressed between groups were determined using a linear model (ImFit function from limma R package) on vst transformation gene expression dataset. […]

The test system of experiment [2] is murine model of bleomycin-induced fibrosis. Kind of experiment: Bleomycin-induced murine lung fibrosis model: body weight and body weight metrics. The experiment is classed as in vivo, mice. Particulars: for reduction of median Time to baseline (TTB): median TTB 20 days for untreated bleomycin group; for reduction of median Time to baseline (TTB) / reduction of median Time to weight growth (TWG): FIG. 13; for reduction of median Time to weight growth (TWG): median TWG 10 days for untreated bleomycin group. As to the method: (§4) Control bleomycin mice named ‘Bleo’ received an administration of 1.65 mg/kg bleomycin by the oropharyngeal route on Day 1. […] Antibody-treated mice also received an administration of 1.65 mg/kg bleomycin by the oropharyngeal route on Day 1 and a subcutaneous injection of 20 mg/kg antibody, starting on day minus one and on days 4, 8, 12, 16 and 20. Each antibody was solubilized in sterile, endotoxin-free PBS before injection. Mice that received bleomycin were also treated by oropharyngeal administration of 0.5 mg/kg of TD139 compound (Bleo-TD139), a small molecule Gal3 inhibitor, starting on day 12 and every 2 days until day 20. TD139 was initially dissolved in 100% DMSO.
Mice were weighed daily. Their growth curves are represented on FIG. 12. Control mice had normal growth with a mean percent increase of 6.4% of their initial body weight measured on day minus 1.
Body weight metrics were assessed by using two parameters called Time to weight growth (TWG) and Time to baseline (TTB), shown on FIG. 13. Time to weight growth corresponds to the point of inflection when mice show an ascending growth curve and start to regain weight within the course of the experiment. Time to baseline corresponds to the number of days required for mice to recover their initial body weight (day minus 1). The median TWG was 10 days for the untreated bleomycin group. […] TD139 compound had no efficacy on this parameter (p-value 0.53).

The subject of experiment [3] is murine model of HOCI-induced fibrosis. The experiment can be described thus: HOCI-induced murine fibrosis model: skin thickness. Format: in vivo, mice. Particulars: first experiment, 42 days; antibody 20 mg/kg s.c.; TD139 0.5 mg/kg intratracheal; vs HOCI group; FIG. 7A. As to the method:
as §1, §2
The evolution of skin thickness was monitored by using an external caliper, every seven days until sacrifice.

Experiment [4] shares this test system. The experiment can be described thus: HOCI-induced murine fibrosis model: skin and lung collagen (Picrosirius red). Format: in vivo, mice. The following applies: first experiment; for lung collagen levels: day 42, FIG. 8A; for skin collagen levels: day 42, vs HOCI group, FIG. 8B. As to the method: as §1, §2
At the day of study termination of the first experiment (day 42), skin and lung samples were taken, formalin-fixed and processed to individual paraffin wax blocks. Sections of skin and lung were cut from the blocks and, after rehydration, stained with Picrosirius Red coloration according to the manufacturer's protocol. Subsequently, each slide was examined and remotely analyzed employing the web-based Image J software

For another experiment, the system named is plasma IL-5. The experiment can be described thus: HOCI-induced murine fibrosis model: plasma IL-5 (MSD). The experiment is classed as in vivo, mice. Particulars: first experiment, day 42; vs HOCI group; FIG. 9. As to the method:
as §1, §2, §3

In a further experiment the test system is plasma Gal3. Kind of experiment: HOCI-induced murine fibrosis model: plasma Gal3 (ELISA). Format: in vivo, mice. Particulars: first experiment, day 42; FIG. 10. As to the method:
as §1, §2
In the first experiment, the plasma levels of Gal3 were measured at day minus 1 (before antibody administration) and at termination day (day 42) using a mouse Galectin-3 DuoSet ELISA kit (R&D Systems, DY1197) according to the manufacturer's instructions. Plasma samples were diluted 1:200 in order to fit with the dynamic range of the assay.
Background: ELISA stands for enzyme-linked immunosorbent assay.

Experiment [5] concerns murine model of bleomycin-induced fibrosis. Kind of experiment: Bleomycin-induced murine lung fibrosis model: Modified Ashcroft fibrosis score. Format: in vivo, mice. Particulars: for attenuation of lung fibrosis (overall): day 21, FIG. 15. As to the method: as §4
Mice were submitted for terminal euthanasia on day 21. The lungs were collected for histopathological examination and gravity inflation-fixed with 10% neutral buffered formalin (NBF) before being immersion fixed in NBF.
Sections were taken and then placed on three slides as indicated by the code numbers on FIG. 14.
Three longitudinal sections parallel to and bisecting the main stem bronchus were trimmed from the left lung and right caudal lung lobes and mounted in cassettes 01 and 02, respectively. The right cranial, middle and accessory lung lobes were sectioned longitudinally and mounted in cassette 03. All sections were stained with picrosirius red and scored in a blinded manner by a certified veterinary pathologist using the Modified Ashcroft fibrosis score (0-8), where “0” corresponds to “normality (no fibrosis) and “8” corresponds to the highest possible fibrosis score, as described by Hübner et al. (2008) but based on assessment across the whole section of lung.

The subject of a further experiment is plasma TNF alpha. Kind of experiment: Rat ARDS model (LPS challenge): plasma TNF alpha (MSD). The experiment is classed as in vivo. The following applies: 4 h following LPS challenge; vs LPS group; FIG. 18. How it is done: (§5) Positive control rats received 3 doses of sterile phosphate buffer at day minus 11, minus 6 and minus 1 prior LPS challenge (0.25 mg/kg by subcutaneous route at day 1). Negative control rats received one oral dose of Dexamethasone at 10 mg/kg (dissolved in 0.5% carboxymethyl cellulose in deionized water) 2 hours prior LPS challenge (0.25 mg/kg by subcutaneous route at day 1). LPS (lipopolysaccharide) causes an acute inflammatory response, whereas dexamethasone has anti-inflammatory effects thus being the reference treatment in this model.
(§6) Antibody-treated rats received 3 doses of antibodies (14 mg/kg) at day minus 11, minus 6 and minus 1 prior to LPS challenge (0.25 mg/kg by subcutaneous route at day 1). Each antibody was solubilized in sterile PBS before injection.
(§7) Control rats of the experiment received 3 doses of sterile phosphate buffer at day minus 11, minus 6 and minus 1 without LPS challenge at day 1.
For all rats, plasma sampling was performed 4 h following LPS challenge.
The impact of anti-Gal3 antibody treatment in LPS challenged rats were evaluated on plasma cytokine levels, namely TNF alpha and KC-GRO cytokines, and compared to the positive control group (LPS challenge with PBS treatment) (respectively FIG. 18A and FIG. 18B). TNF alpha and KC-GRO were quantified by using the MSD technology from Mesoscale.

The subject of experiment [6] is rat model of ARDS. The experiment can be described thus: Rat ARDS model (LPS challenge): total BALF protein (BCA assay). Format: in vivo. Particulars: antibodies 14 mg/kg x3 prior to LPS; dexamethasone 10 mg/kg oral; vs LPS group; FIG. 17. As to the method:
as §5, §6, §7
The impact of anti-Gal3 antibody treatment in LPS challenged rats were evaluated by quantification of proteins (by BCA assay) in BALF and compared to the positive control group (LPS challenge with PBS treatment) (FIG. 17). The presence of protein in BALF reflects the damage to the air-blood barrier. […] Total BALF protein numeration levels were decreased after treatment with anti-inflammatory dexamethasone.

The test system of experiment [7] is rat model of ARDS. The experiment can be described thus: Rat ARDS model (LPS challenge): neutrophils counts in BALF. The experiment is classed as in vivo. The following applies: antibodies 14 mg/kg x3 prior to LPS; dexamethasone 10 mg/kg oral; vs LPS group; FIG. 16. As to the method: as §5, §6, §7
The impact of anti-Gal3 antibody treatment in LPS challenged rats were evaluated by quantification of neutrophils in Bronchoalveolar Lavage Fluid and compared to the positive control group (LPS challenge with PBS treatment) (FIG. 16). […] Neutrophils numeration levels were decreased after treatment with anti-inflammatory dexamethasone.

For the molecule `OC[C@H]1O[C@@H](S[C@@H]2O[C@H](CO)[C@H](O)[C@H](n3cc(-c4cccc(F)c4)nn3)[C@H]2O)[C@H](O)[C@@H](n2cc(-c3cccc(F)c3)nn2)[C@H]1O` [TD139, reference compound], the “plasma IL-6 levels” value with plasma IL-6 is given as “no activity”. Besides, in [1], the “number of HOCI-dysregulated genes counteracted by treatment” value is 7 genes and the “percentage of HOCI-dysregulated genes counteracted by treatment” value worked out at 1.37%. Also, in experiment [2], the “reduction of median Time to baseline (TTB)” value is “no efficacy” and the “reduction of median Time to weight growth (TWG)” value is given as “no efficacy”. For the same molecule, in experiment [2] (untreated bleomycin group +1.9%, control mice 6.4%), the “mean percent weight increase on day 21 compared to day minus 1” value is recorded as 2.9%. The “HOCI-induced increase in skin thickness” value in experiment [3] is “lower decrease in skin thickness than with either antibody, reaching statistical significance only at days 28 and 42”. In experiment [4], the lung collagen levels result was “restored lung collagen levels to those of control mice” and the skin collagen levels result is reported as “significantly reduced”. For the same molecule, the “plasma IL-5 levels” value in the experiment on plasma IL-5 is recorded as “decreased significantly”. Further, the “plasma Gal3 levels” value in the experiment on plasma Gal3 was “restored the plasma Gal3 levels to values similar to those of the control group”. The “mice having a lung fibrosis score of 2 and 3” value in experiment [5] (day 21) was 50.6%. For the same molecule, the “mice having a lung fibrosis score of 4 and 5” value in [5] (day 21, 49.3% for untreated bleomycin group) is listed as 49.4%. The “attenuation of lung fibrosis (overall)” value in experiment [5] was “did not show any sign of anti-fibrotic efficacy”.

B1: D06: anti-Gal3 monoclonal antibody, IgG1 format; VH SEQ ID NO 38, VL SEQ ID NO 39 (antibody, V domains shown)
VH: EVQLVESGGSLVKPGGSLRLSCAASGFTFSNYNMNWVRQAPGKGLEWISSIYGSSRYIYYADFVKGRFTISRDNAKNSLYLQMNSLRAEDTAVYYCVRSGYGGMDVWGRGTLVTVSS
VL: QSVLTQPASVSGSPGQSITISCAGTSSDVGGYNGVSWYQQHPGKAPKLMIYYDSYRPSGVSNRFSGSKSGNTASLTISGLQAEDEADYYCSSGTDYSTRVFGGGTKLEIK
modifications: IgG1 constant region
In the case of B1, the “body weight status on day 21” value in experiment [2] (bleomycin 1.65 mg/kg, antibody 20 mg/kg s.c.) is given as “full weight recovery”. Also, in experiment [2] (bleomycin 1.65 mg/kg, antibody 20 mg/kg s.c., FIG. 12), the “recovery of body weight” value is reported as “more rapid recovery of body weight”. Besides, in experiment [2], the “reduction of median Time to baseline (TTB)” value stood at 5.5 days and the “reduction of median Time to weight growth (TWG)” value was 2.8 days. In addition, the “TNF alpha plasma levels” value in the experiment on plasma TNF alpha was “also decreased, displaying an intermediary profile”. In addition, in [4], the lung collagen levels entry is given as “restored lung collagen levels to those of control mice” and the skin collagen levels result is “non significant downward trend”. Further, the “total BALF protein” value in the experiment on rat model of ARDS [6] is “also decreased”. Besides, the “neutrophils counts in BALF” value in the experiment with rat model of ARDS [7] is “also decreased”. Besides, the “frequency of animals with fibrosis score of 2” value in [5] (day 21, 7.4% in untreated bleomycin group) was 30%. Besides, the “frequency of animals with median fibrosis scores of 3 or 4” value in experiment [5] (day 21, 87.6% in untreated bleomycin group) was determined as 64.5%. The “attenuation of lung fibrosis (overall)” value in experiment [5] is “clear evidence for attenuation of lung fibrosis”.
